Legend:
Assay type in all cases: cell-based, Dickeya dadantii 3937 (Ech3937)
hrpS mRNA = assay: qRT-PCR relative mRNA level of hrpS; settings: MM supplemented with OCA, p>0.5 (FIG. 4)
Experimental: Bacterial strains were grown in MM. Total RNA from the bacterial cells was isolated by using the TRI reagent method (Sigma, Mo.) and treated with Turbo DNA-free DNase kits (Ambion, TX) as described (Peng et al., 2006). An iScript cDNA Synthesis Kit (Bio-Rad, CA) was used to synthesize cDNA from 0.5 μg of treated total RNA. The Real Master Mix (Eppendorf, Westbury, N.Y.) was used for qRT-PCR reaction to quantify the cDNA level of target genes in different samples. The rplU was used as the endogenous control for data analysis. qRT-PCR data were analyzed using Relative Expression Software Tool as described (Pfaffl, M. W., Horgan, G. W., and Dempfle, L. (2002) Relative expression software tool (REST) for group-wise comparison and statistical analysis of relative expression results in real-time PCR. Nucleic Acids Res 30:e36.).

pPROBE-AT vector = assay: GFP expression control base level, pPROBE-AT vector, flow cytometry (FACS)
Experimental: (§1) FACS analysis of promoter activity of dspE, hrpA, hrpL, hrpN, and hrpS was carried out as described (Peng et al., 2006). Briefly, the wild-type Ech3937 and the mutant strains carrying the promoter reporter plasmid were grown on LB broth at 28° C. overnight and transferred to appropriate media. For FACS analysis, samples were collected by centrifugation, washed with 1× phosphate buffer saline (PBS) at 13,000 rpm for 1 min, and re-suspended in 1×PBS to ca 10^6 CFU/ml prior to being run in a FACS Calibur flow cytometer (BD Biosciences, CA). Three replicates were performed for each treatment.
(§2) Since OCA and TCA induced the expression of hrpN, the effect of these two phenolic compounds on the expression of hrpA, hrpL, and hrpS was investigated further. […] GFP intensity was determined on gated populations of bacterial cells by flow cytometry and analyzed with the Cell Quest software (BD Biosciences, San Jose, Calif.). The lines labeled “1” stand for the GFP expression control base level of the Ech3937 containing pPROBE-AT vector; lines labeled “2” stand for the promoter activity of hrpS, hrpL, hrpA and hrpN in Ech3937 in MM; lines labeled “3” stand for the promoter activity of Ech3937 in MM supplemented with 0.1 mM OCA; lines labeled “4” stand for the promoter activity of hrpL mutant WPP96 in MM; lines labeled “5” stand for the promoter activity of hrpL mutant WPP96 in MM supplemented with 0.1 mM OCA. Values are representative of at least two experiments. […] Compared with MM alone, the average GFP fluorescence intensity of bacterial cells of Ech3937 (phrpA) was doubled when 0.1 mM of OCA and TCA were added to the medium (Table 4; FIG. 3). […] The mrp, whose protein product has an ATPase conserved domain (2e-06), was used as a reference gene in this study.

hrpS promoter = hrpS promoter activity, GFP reporter plasmid phrpS, flow cytometry (FACS); settings: MM + 0.1 mM compound
Experimental: as §1, §2

hrpN promoter = hrpN promoter activity, GFP reporter plasmid phrpN, flow cytometry (FACS); settings: for GFP intensity (Mean Fluorescence Intensity) of Ech138 (phrpN): iaaM mutant Ech138, MM + 0.1 mM OCA
mrp promoter = assay: mrp (reference gene) promoter activity, GFP reporter pmrp, flow cytometry (FACS); settings: MM + 0.1 mM compound
Experimental: as §1, §2

hrpL promoter = hrpL promoter activity, GFP reporter plasmid phrpL, flow cytometry (FACS); settings: MM + 0.1 mM compound
Experimental: as §1, §2

hrpA promoter = hrpA promoter activity, GFP reporter plasmid phrpA, flow cytometry (FACS); settings: for GFP intensity (Mean Fluorescence Intensity) of Ech-Rif (phrpA) / GFP intensity (Mean Fluorescence Intensity) of Ech137 (phrpA): MM + 0.1 mM OCA; for GFP intensity (Mean Fluorescence Intensity) of Ech137 (phrpA): gacA mutant Ech137
Procedure, shortened: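 Ech3937 carrying phrpA (hrpA promoter–GFP transcriptional fusion) grown in MM with 0.1 mM compound after overnight LB culture at 28° C. Cells washed, resuspended in PBS at ca 10^6 CFU/ml, and GFP intensity read by flow cytometry as promoter activity; three replicates.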

[1] = MM + 0.1 mM compound, 12 h (Table 4)
[2] = hrpL mutant WPP96, 12 h (Table 4)
[3] = hrpL mutant WPP96, MM + 0.1 mM compound, 12 h (Table 4)

O=C(O)/C=C/c1ccccc1O [OCA, o-coumaric acid]
hrpS gene expression, MM vs supplemented MM (qRT-PCR) (hrpS mRNA): No significant difference
GFP intensity (Mean Fluorescence Intensity) of Ech3937 (pPROBE-AT) (pPROBE-AT vector; MM + 0.1 mM OCA, 6 h): 2.0 ± 0
GFP intensity (Mean Fluorescence Intensity) of Ech3937 (pPROBE-AT) (pPROBE-AT vector; MM + 0.1 mM OCA, 12 h): 2.0 ± 0
GFP intensity (Mean Fluorescence Intensity) of Ech3937 (pPROBE-AT) (pPROBE-AT vector; MM + 0.1 mM OCA, 24 h): 1.9 ± 0
GFP intensity (Mean Fluorescence Intensity) of Ech3937 (pPROBE-AT) (pPROBE-AT vector; [1]): 2.0 ± 0
GFP intensity of Ech3937 (phrpS) compared with MM alone (hrpS promoter; 12 h): slightly lower GFP intensity
GFP intensity (Mean Fluorescence Intensity) of Ech3937 (phrpS) (hrpS promoter; 12 h (Table 4)): 56 ± 1
GFP intensity (Mean Fluorescence Intensity) of WPP96 (phrpS) (hrpS promoter; [2]): 350 ± 17
increase of average GFP fluorescence intensity of Ech3937 (phrpN) compared with MM alone (hrpN promoter; 0.05 mM compound added to MM, 12 h and 24 h (FIGS. 2A, 2B)): approximately 4 fold
induction of hrpN expression in Ech3937 and in hrpX (WPP67), hrpY (WPP92), hrpS (WPP90) mutants (hrpN promoter; 0.1 mM compound in MM, 12 h (FIG. 5)): induced the expression of hrpN in Ech3937, but not in hrpX, hrpY, and hrpS mutants
GFP intensity (Mean Fluorescence Intensity) of Ech3937 (phrpN) (hrpN promoter; MM + 0.1 mM OCA (MMOCA), 6 h (Table 5)): 31 ± 3
GFP intensity (Mean Fluorescence Intensity) of Ech3937 (phrpN) (hrpN promoter; MM + 0.1 mM OCA (MMOCA), 12 h (Table 5)): 91 ± 8
GFP intensity (Mean Fluorescence Intensity) of Ech3937 (phrpN) (hrpN promoter; MM + 0.1 mM OCA (MMOCA), 24 h (Table 5)): 78 ± 8
GFP intensity (Mean Fluorescence Intensity) of Ech3937 (phrpN) (hrpN promoter; [1]): 94 ± 3
GFP intensity (Mean Fluorescence Intensity) of WPP96 (phrpN) (hrpN promoter; [3]): 3.3 ± 0.1
GFP intensity (Mean Fluorescence Intensity) of Ech138 (phrpN) (hrpN promoter; 6 h): 9.1 ± 1.6
GFP intensity (Mean Fluorescence Intensity) of Ech138 (phrpN) (hrpN promoter; 12 h): 33 ± 5
GFP intensity (Mean Fluorescence Intensity) of Ech138 (phrpN) (hrpN promoter; 24 h): 39 ± 5
mrp expression in Ech3937 (pmrp) compared with MM (mrp promoter; 12 h): slightly higher mrp expression
GFP intensity (Mean Fluorescence Intensity) of Ech3937 (pmrp) (mrp promoter; reference gene, 12 h (Table 4)): 97.7 ± 1.6
promoter activity of hrpL compared with MM alone (hrpL promoter; Ech3937, 12 h): slightly higher promoter activity
GFP intensity (Mean Fluorescence Intensity) of Ech3937 (phrpL) (hrpL promoter; 12 h (Table 4)): 19 ± 0
GFP intensity (Mean Fluorescence Intensity) of WPP96 (phrpL) (hrpL promoter; [2]): 313 ± 29
average GFP fluorescence intensity of Ech3937 (phrpA) compared with MM alone (hrpA promoter; 0.1 mM compound, 12 h): doubled
GFP intensity (Mean Fluorescence Intensity) of Ech-Rif (phrpA) (hrpA promoter; 6 h): 18 ± 0
GFP intensity (Mean Fluorescence Intensity) of Ech-Rif (phrpA) (hrpA promoter; 12 h): 51 ± 2
GFP intensity (Mean Fluorescence Intensity) of Ech-Rif (phrpA) (hrpA promoter; 24 h): 49 ± 1
expression of hrpA, GFP intensity (Mean Fluorescence Intensity), Ech3937 carrying phrpA (hrpA promoter; MM + 0.1 mM compound, 6 h (Table 9)): 15.5 ± 1.1
GFP intensity (Mean Fluorescence Intensity) of Ech3937 (phrpA) (hrpA promoter; [1]): 82 ± 1
expression of hrpA, GFP intensity (Mean Fluorescence Intensity), Ech3937 carrying phrpA (hrpA promoter; MM + 0.1 mM compound, 12 h (Table 9)): 115.5 ± 7.9
expression of hrpA, GFP intensity (Mean Fluorescence Intensity), Ech3937 carrying phrpA (hrpA promoter; MM + 0.1 mM compound, 24 h (Table 9)): 225.8 ± 15.6
GFP intensity (Mean Fluorescence Intensity) of Ech137 (phrpA) (hrpA promoter; 6 h): 4.9 ± 0.1
GFP intensity (Mean Fluorescence Intensity) of Ech137 (phrpA) (hrpA promoter; 12 h): 5.9 ± 0.1
GFP intensity (Mean Fluorescence Intensity) of Ech137 (phrpA) (hrpA promoter; 24 h): 8.3 ± 0
GFP intensity (Mean Fluorescence Intensity) of WPP96 (phrpA) (hrpA promoter; [3]): 6.5 ± 0.2
